melting point [°C] | SMILES
163 to 167 | Cc1cccc(N2CCN(CCn3cnc4sc5c(c4c3=O)CCN(C)C5)CC2)c1C [Example 44, 3,4,5,6,7,8-Hexahydro-7-methyl-3-[2-(4-(2,3-dimethylphenyl)-piperazin-1-yl)ethyl]pyrido[4′,3′:4,5]thieno[2,3-d]pyrimidin-4-one]
143 to 145 | CN1CCc2c(sc3ncn(CCN4CCN(c5ccc6ccccc6n5)CC4)c(=O)c23)C1 [Example 65, 3,4,5,6,7,8-Hexahydro-7-methyl-3-[2-(4-quinolin-2-yl-piperazin-1-yl)ethyl]pyrido[4′,3′:4,5]thieno[2,3-d]-pyrimidin-4-one]
162 to 164 | CN1CCc2c(sc3ncn(CCN4CCN(c5ccccc5C#N)CC4)c(=O)c23)C1 [Example 68, 3,4,5,6,7,8-Hexahydro-7-methyl-3-[2-(4-(2-cyanophenyl)-piperazin-1-yl)ethyl]pyrido[4′,3′:4,5]thieno[2,3-d]-pyrimidin-4-one]
140 to 141 | CN1CCc2c(sc3ncn(CCN4CCN(c5ccc6ccccc6c5)CC4)c(=O)c23)C1 [Example 73, 3,4,5,6,7,8-Hexahydro-7-methyl-3-[2-(4-naphth-2-ylpiperazin-1-yl)ethyl]pyrido[4′,3′:4,5]thieno[2,3-d]pyrimidin-4-one]
138 to 140 | Cc1cccc(N2CCN(CCn3cnc4sc5c(c4c3=O)CCN(C)C5)CC2)n1 [Example 126, 3,4,5,6,7,8-Hexahydro-7-methyl-3-[2-(4-(6-methylpyridin-2-yl)piperazin-1-yl)ethyl]pyrido[4′,3′:4,5]thieno[2,3-d]-pyrimidin-4-one]
139 to 141 | Cc1ccc(N2CCN(CCn3cnc4sc5c(c4c3=O)CCN(C)C5)CC2)c2ccccc12 [Example 138, 3,4,5,6,7,8-Hexahydro-7-methyl-3-[2-(4-(4-methylnaphth-1-yl)piperazin-1-yl)ethyl]pyrido[4′,3′:4,5]thieno[2,3-d]-pyrimidin-4-one]
157 to 158 | CN1CCc2c(sc3ncn(CCN4CCN(c5ccc(F)c6ccccc56)CC4)c(=O)c23)C1 [Example 140, 3,4,5,6,7,8-Hexahydro-7-methyl-3-[2-(4-(4-fluoronaphth-1-yl)-piperazin-1-yl)ethyl]pyrido[4′,3′:4,5]thieno[2,3-d]-pyrimidin-4-one]
101 to 102 | CN1CCc2c(sc3ncn(CCN4CCN(c5cc(C(F)(F)F)ccn5)CC4)c(=O)c23)C1 [Example 141, 3,4,5,6,7,8-Hexahydro-7-methyl-3-[2-(4-(4-trifluoromethylpyridin-2-yl)piperazin-1-yl)ethyl]pyrido[4′,3′:4,5]thieno-[2,3-d]pyrimidin-4-one]
121 to 123 | CN1CCc2c(sc3ncn(CCN4CCN(c5ccccc5)CC4)c(=O)c23)C1 [Example 145, 3,4,5,6,7,8-Hexahydro-7-methyl-3-[2-(4-phenylpiperazin-1-yl)ethyl]pyrido[4′,3′:4,5]thieno[2,3-d]pyrimidin-4-one]
136 to 138 | Cc1ccnc(N2CCN(CCn3cnc4sc5c(c4c3=O)CCN(C)C5)CC2)n1 [Example 153, 3,4,5,6,7,8-Hexahydro-7-methyl-3-[2-(4-(4-methylpyrimidin-2-yl)piperazin-1-yl)ethyl]pyrido[4′,3′:4,5]thieno[2,3-d]-pyrimidin-4-one]

The remaining lines, values behind:

SMILES | melting point [°C]
CN1CCc2c(sc3ncn(CCCN4CCN(c5ccccc5C#N)CC4)c(=N)c23)C1 [Example 37, 3,4,5,6,7,8-Hexahydro-7-methyl-3-[3-(4-(2-cyanophenyl)-piperazin-1-yl)propyl]pyrido[4′,3′:4,5]thieno[2,3-d]-pyrimidin-4-imine] | 148 to 150
CCOC(=O)N1Cc2sc3ncn(CCN4CCN(c5ccccc5C)CC4)c(=O)c3c2C1 [Example 38, 3,4,5,7-Tetrahydro-6-carboethoxy-3-[2-(4-(2-methylphenyl)-piperazin-1-yl)ethyl]pyrrolo[3′,4′:4,5]thieno-[2,3-d]pyrimidin-4-one] | 152
CCOC(=O)N1Cc2sc3ncn(CC(C)N4CCN(c5ccccc5Cl)CC4)c(=O)c3c2C1 (stereo not shown) [Example 39, 3,4,5,7-Tetrahydro-6-carboethoxy-3-[2-(4-(2-chlorophenyl)-piperazin-1-yl)propyl]pyrrolo[3′,4′:4,5]thieno-[2,3-d]pyrimidin-4-one] | 172
CCOC(=O)N1Cc2sc3ncn(CCCN4CCN(c5ccccc5C#N)CC4)c(=O)c3c2C1 [Example 43, 3,4,5,7-Tetrahydro-6-carboethoxy-3-[3-(4-(2-cyanophenyl)-piperazin-1-yl)propyl]pyrrolo[3′,4′:4,5]thieno[2,3-d]-pyrimidin-4-one] | 190
CCOC(=O)N1Cc2sc3ncn(CCN4CCN(c5cccc6c5CCC6)CC4)c(=O)c3c2C1 [Example 44, 3,4,5,7-Tetrahydro-6-carboethoxy-3-[2-(4-indan-4-ylpiperazin-1-yl)ethyl]pyrrolo[3′,4′:4,5]thieno[2,3-d]pyrimidin-4-one] | 149
CN1CCc2c(sc3ncn(CCN4CCN(c5cc(Cl)cc(Cl)c5)CC4)c(=O)c23)C1 [Example 46, 3,4,5,6,7,8-Hexahydro-7-methyl-3-[2-(4-(3,5-dichlorophenyl)-piperazin-1-yl)ethyl]pyrido[4′,3′:4,5]thieno[2,3-d]pyrimidin-4-one] | 97 to 100
CN1CCc2c(sc3ncn(CCCN4CCN(c5ncccn5)CC4)c(=O)c23)C1 [Example 64, 3,4,5,6,7,8-Hexahydro-7-methyl-3-[3-(4-pyrimidin-2-yl-piperazin-1-yl)propyl]pyrido[4′,3′:4,5]thieno[2,3-d]-pyrimidin-4-one] | 161 to 163
COc1ccccc1N1CCN(CCn2cnc3sc4c(c3c2=O)CCNC4)CC1 [Example 115, 3,4,5,6,7,8-Hexahydro-3-[2-(4-(2-methoxyphenyl)-piperazin-1-yl)ethyl]pyrido[4′,3′:4,5]thieno[2,3-d]pyrimidin-4-one] | 168 to 170
COc1ccccc1N1CCN(CCn2cnc3sc4c(c3c2=O)CCN(C(C)=O)C4)CC1 [Example 116, 3,4,5,6,7,8-Hexahydro-7-acetyl-3-[2-(4-(2-methoxyphenyl)-piperazin-1-yl)ethyl]pyrido[4′,3′:4,5]thieno[2,3-d]-pyrimidin-4-one] | 170 to 172
COc1ccccc1N1CCN(CCn2c(C)nc3sc4c(c3c2=O)CCN(C)C4)CC1 [Example 120, 3,4,5,6,7,8-Hexahydro-2,7-dimethyl-3-[2-(4-(2-methoxyphenyl)-piperazin-1-yl)ethyl]pyrido[4′,3′:4,5]thieno-[2,3-d]pyrimidin-4-one] | 176 to 178
COc1ccccc1N1CCN(CCn2c(O)nc3sc4c(c3c2=O)CCN(C(C)=O)C4)CC1 [Example 121, 3,4,5,6,7,8-Hexahydro-7-acetyl-2-hydroxy-3-[2-(4-(2-methoxyphenyl)piperazin-1-yl)ethyl]pyrido[4′,3′:4,5]thieno-[2,3-d]pyrimidin-4-one] | 135 to 137
CN1CCc2c(sc3ncn(CCN4CCN(c5nccc(C(F)(F)F)n5)CC4)c(=O)c23)C1 [Example 127, 3,4,5,6,7,8-Hexahydro-7-methyl-3-[2-(4-(4-trifluoromethyl-pyrimidin-2-yl)piperazin-1-yl)ethyl]pyrido[4′,3′:4,5]-thieno[2,3-d]pyrimidin-4-one] | 291 to 292

Reference: patent US6387912B1, “Utilization of pyrimidine derivatives for preventing and treating cerebral ischaemia” (BASF Aktiengesellschaft, priority 1999, dated 2002)
